Data from US20240374579A1, “BICYCLIC PGDH INHIBITORS AND METHODS OF MAKING AND USING” (EPIRIUM BIO INC., priority 2021, published 2024).

What follows are compounds tested against T1, 15-PGDH/HPGD (Homo sapiens, UniProt P15428) (assay: hPGDH inhibitor screening biochemical assay). Settings: 10 nM enzyme, 15 μM PGE2, 0.25 mM NAD, fluorescence ex/em 340/485 nm.
T1 construct: purchased R&D System 5660-DH
T1 sequence (P15428 1-266): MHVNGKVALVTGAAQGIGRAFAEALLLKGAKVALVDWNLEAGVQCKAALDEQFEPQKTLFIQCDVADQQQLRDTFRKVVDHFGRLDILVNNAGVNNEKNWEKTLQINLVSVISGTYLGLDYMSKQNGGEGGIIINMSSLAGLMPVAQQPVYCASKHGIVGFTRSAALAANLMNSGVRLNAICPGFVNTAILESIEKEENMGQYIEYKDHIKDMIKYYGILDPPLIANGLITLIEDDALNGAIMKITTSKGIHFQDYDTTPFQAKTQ
Procedure: A hydroxyprostaglandin dehydrogenase inhibition screening biochemical assay can be performed to assess the synthesized inhibitors provided herein. Provided herein is an exemplary biochemical assay for hPGDH inhibitor screening.
The in vitro biochemical assay can be performed in white, 384 plates in total 20 μl reaction volume consisting of 10 nM of 15-PGDH/HPGD (R&D System #5660-DH), 15 μM Prostaglandin E2 (Sigma, Cat #P5640-10MG) and 0.25 mM β-Nicotinamide adenine dinucleotide sodium salt (Sigma, Cat #N0632-5G) made in reaction buffer (50 mM Tris-HCl, pH 7.5, 0.01% Tween 20) at 10-point dose response curve for test/tool compounds. Briefly, 5 μl (4×) of compounds solution and 5 μl (final concentration, 10 nM) of enzyme solution is added to white 384 well plates and incubated for 10 mins at 37° C. 5 μl (4×) of Prostaglandin E2 and 5 μl (4×) of β-Nicotinamide adenine dinucleotide sodium salt is added to the wells and incubated for 10 mins at room temperature. Fluorescence is recorded at ex/em=340 nm/485 nm. The percentage ([…]) inhibition of enzyme activity was determined relative to positive control (1% DMSO) and IC50 was calculated using GraphPad prism software (four parameter-variable slope equation).

IC50 [nM]	SMILES
< 100	O=C(c1cnc2c(cnn2-c2cccc(-c3nnc[nH]3)c2)c1)N1CCC(F)(F)CC1 [Compound C-41, (1-(3-(4H-1,2,4-triazol-3-yl)phenyl)-1H-pyrazolo[3,4-b]pyridin-5-yl)(4,4-difluoropiperidin-1-yl)methanone]
100 to 1000	CCOC(=O)Nc1cncc(-n2ncc3cc(C(=O)N4CCC[C@H](C(F)(F)F)C4)cnc32)c1 [Compound C-54]
< 100	C[C@@H]1CN(C(=O)c2cnc3c(cnn3-c3cc(Cl)cc(-c4nnc[nH]4)c3)c2)CCO1 [Compound C-60]
< 100	COCC(=O)Nc1cncc(-n2ncc3cc([S+]([O-])C4CCC(F)(F)CC4)cnc32)c1 (stereo not shown) [Compound C-124]
100 to 1000	CCCC[S+]([O-])c1cnc2c(cnn2-c2ccc(-c3nnc[nH]3)cc2)c1 (stereo not shown) [Compound C-93]
< 100	COc1cc(-c2nnc[nH]2)cc(-n2ncc3cc(C(=O)N4CCC(F)(F)CC4)cnc32)c1 [Compound C-71]
< 100	O=C(c1cnc2c(cnn2-c2ccc(-c3nnc[nH]3)cc2F)c1)N1CCC(F)(F)CC1 [Compound C-73]
100 to 1000	O=C(c1cnc2c(cnn2-c2cc(Cl)cc(-c3nnc[nH]3)c2)c1)N1CC[S+]([O-])CC1 [Compound C-67]
100 to 1000	O=C(c1cnc2c(cnn2-c2ccc(-c3nnc[nH]3)c(Cl)c2)c1)N1CC[S+]([O-])CC1 [Compound C-70]

The next lines start with the compound.

SMILES	IC50 [nM]
O=C(c1cnc2c(cnn2-c2ccc(-c3nnc[nH]3)nc2)c1)N1CC2CCCC2C1 (stereo not shown) [Compound C-22]	< 100
C[C@H]1CCN(C(=O)c2cnc3c(cnn3-c3ccc(-c4nnc[nH]4)nc3)c2)C1 [Compound C-21]	< 100
O=C(c1ccc2c(c1)nnn2-c1ccc(-c2ncn[nH]2)nc1)N1CCC(F)(F)CC1 [Compound C-9, (1-(6-(1H-1,2,4-triazol-5-yl)pyridin-3-yl)-1H-benzo[d][1,2,3]triazol-5-yl) (4,4-difluoropiperidin-1-yl)methanone]	100 to 1000
O=C(c1cnc2c(c1)nnn2-c1ccc(-c2ncn[nH]2)nc1)N1CCC(F)(F)CC1 [Compound C-5, (3-(6-(1H-1,2,4-triazol-5-yl)pyridin-3-yl)-3H-[1,2,3]triazolo[4,5-b]pyridin-6-yl) (4,4-difluoropiperidin-1-yl)methanone]	< 100
Cc1nc2cc(C(=O)N3CCC(F)(F)CC3)cnc2n1-c1ccc(C(=O)O)cc1 [Compound C-3, 4-(6-(4,4-difluoropiperidine-1-carbonyl)-2-methyl-3H-imidazo[4,5-b]pyridin-3-yl)benzoic acid]	< 100
O=C(c1ccc2c(c1)nnn2-c1ccc(-c2ncn[nH]2)cc1)N1CCC(F)(F)CC1 [Compound C-10, (1-(4-(1H-1,2,4-triazol-5-yl)phenyl)-1H-benzo[d][1,2,3]triazol-5-yl) (4,4-difluoropiperidin-1-yl)methanone]	100 to 1000
O=C(c1cnc2c(cnn2-c2ccc(-c3ncn[nH]3)nc2)c1)N1CCC(F)(F)CC1 [Compound C-4]	< 100
